This is an account of results in EP4768499A1, “MACROCYCLIC PEPTIDE COMPOUND HAVING CELL MEMBRANE PERMEABILITY AND METABOLIC STABILITY, AND LIBRARY CONTAINING SAME” (Chugai Seiyaku Kabushiki Kaisha, priority 2023, dated 2025).

As usually defined, the Cmax is the highest concentration seen after dosing. As a reminder, the Tmax is the time at which the peak concentration occurs.

Where two headings read alike, the source gives them in different places. Starred links: 1 amine or outer side, 2 acyl side, 3 side chain; linkers in the order of their positions; H or OH if unused. Non-standard residues stand in square brackets, D forms with d. Residues, ends and D or L forms follow the SMILES beside them. *: point of attachment. NMedβ3hAla = C[C@H](CC(=O)[*:2])N(C)[*:1]; NMeF = CN[C@@H](Cc1ccccc1)C(=O)O; NMeI = CC[C@H](C)[C@H](NC)C(=O)O; NMeT = CN[C@H](C(=O)O)[C@@H](C)O; hPhe = N[C@@H](CCc1ccccc1)C(=O)O; NMeβAla = CN(CCC(=O)[*:2])[*:1]; NMeL = CN[C@@H](CC(C)C)C(=O)O; NMeV = CN[C@H](C(=O)O)C(C)C; d(β3hA) = C[C@@H](N)CC(=O)O; NMeAbu = CC[C@H](NC)C(=O)O; Abu = CC[C@H](N)C(=O)O; Sar = CNCC(=O)O; tBu = CC(C)(C)*

Data set [1] in a line: Membrane permeability test using Caco-2 cells with preincubation. Type of data set: in vitro ADME. Conditions: Caco-2.
Data set [2] has as its system Caco-2 cells. The data set is described as above. In kind it is in vitro ADME.
Data set [3] is described as follows: Metabolic stability test: liver microsomal stability assay. In kind it is in vitro ADME, mouse. Conditions: for microsomal CLint at 1 µM: male, pH 7.4, presence of NADPH, read-out: Mouse Hepatic Microsome CLh,int NADPH(+).
Data set [4] can be described thus: Mouse PK test: plasma concentration after intravenous or oral administration. The settings on record: C57BL/6J. Type of data set: in vivo, mice (C57BL/6J). The procedure:
We evaluated the plasma concentration changes after intravenous or oral administration of four types of peptides that satisfy these conditions to mice.
To male mice (C57BL/6J, 10 weeks old, purchased from Charles River Laboratories Japan, Inc.: 3 mice per group), the compound was administered intravenously at a dose of 1 mg/kg or orally at a dose of 50 mg/kg, and blood was collected from the jugular vein over time up to 24 hours after administration. The collected blood was dispensed into tubes that were pre-treated with heparin as an anticoagulant. Plasma was separated from the blood by centrifugation, and after deproteinization with acetonitrile, the plasma concentration of the compound was measured with an LC/MS/MS device (XEVO TQ-XS, manufactured by Waters Corporation).

The mark [5] stands for this setting: preincubation 20 to 24 hours, Apical FaSSIF/HBSS pH 6.0, Basal HBSS 4% BSA pH 7.4, 180 minutes, read-out: Caco2 Papp.
Where [6] appears, read: Caco-2 cells, preincubation 20 to 24 hours, apical FaSSIF/HBSS 1% DMSO pH 6.0, basal HBSS 4% BSA pH 7.4, basal sample at 180 minutes.
Where [7] appears, read: mouse liver microsomes 0.5 mg protein/mL, compound 1 µM.
Setting [8] is: mouse liver microsomes 0.5 mg protein/mL, compound 1 µM, absence of NADPH.
[9] abbreviates: plasma, male mice, intravenous administration, 1 mg/kg, read-out: AUCinf.
Setting [10] is: plasma, male mice, intravenous administration, 1 mg/kg, read-out: CL.
The mark [11] stands for this setting: plasma, male mice, intravenous administration, 1 mg/kg, read-out: Vss.
Where [12] appears, read: plasma, male mice, intravenous administration, 1 mg/kg, read-out: t1/2 (converted).
Where [13] appears, read: plasma, male mice, oral 50 mg/kg vs intravenous 1 mg/kg, bioavailability, read-out: F.
Setting [14] is: plasma, male mice, oral administration, 50 mg/kg, read-out: AUCinf.
The mark [15] stands for this setting: plasma, male mice, oral administration, 50 mg/kg, read-out: Cmax.
[16] abbreviates: plasma, male mice, oral administration, 50 mg/kg, read-out: Tmax.
Setting [17] is: plasma, male mice, oral administration, 50 mg/kg, read-out: t1/2 (converted).

Turning to `CC[C@H](C)[C@@H]1NC(=O)[C@H](CC(C)C)N(C)C(=O)C[C@@H](C)NC(=O)[C@H](C(C)C)N(C)C(=O)[C@H](COC(C)(C)C)NC(=O)[C@H](CC)N(C)C(=O)[C@H](Cc2ccccc2)N(C)C(=O)[C@H](CC(C)C)NC(=O)[C@@H]2CCCN2C(=O)[C@H]([C@@H](C)O)N(C)C(=O)[C@H](CC(C)C)N(C)C(=O)[C@H](CC)N(C)C(=O)[C@H](C(C)C)NC(=O)[C@H](CC(C)C)N(C)C1=O` [pd057] (cyclo(I[NMeL]V[NMeAbu][NMeL][NMeT]PL[NMeF][NMeAbu]S(tBu)[NMeV][d(β3hA)][NMeL])), the Papp A→B in data set [1] (setting [5]) is 1.16 ×10⁻⁶ cm/s. In addition, the “Caco2 Papp (10^-6 cm/sec)” value in data set [2] (setting [6]) is listed as 1.16 10^-6 cm/sec. Also, the microsomal CLint at 1 µM in data set [3] (setting [7]) is 50.4 µL/min/mg. For the same molecule, in data set [3] (setting [8]), the “Mouse Hepatic Microsome CLh,int NADPH(-)” value is listed as 44.8 µL/min/mg Protein. Further, the AUC(0-inf) in data set [4] (setting [9]) is 1200 ng·h/mL; in data set [4] (setting [14]) it was 20000 ng·h/mL. The clearance in data set [4] (setting [10]) amounted to 14 mL/min/kg. Besides, in data set [4] (setting [11]), the Vd was 11 L/kg. The half-life in data set [4] (setting [12]) was 12 h; in data set [4] (setting [17]), 6.6 h. For the same molecule, in data set [4] (setting [13]), the bioavailability worked out at 33%. For the same molecule, the Cmax in data set [4] (setting [15]) is 2200 ng/mL. In data set [4] (setting [16]), the Tmax is 2.7 h.

On to `CC[C@@H]1NC(=O)[C@H](CC(C)C)N(C)C(=O)[C@H](COC(C)(C)C)NC(=O)[C@H]([C@@H](C)CC)N(C)C(=O)[C@H](CCc2ccccc2)NC(=O)[C@H](Cc2ccccc2)N(C)C(=O)[C@H](C(C)C)NC(=O)[C@H](CC(C)C)N(C)C(=O)[C@H](CC(C)C)NC(=O)CCN(C)C(=O)C[C@@H](C)N(C)C(=O)CN(C)C(=O)[C@H](CC(C)C)N(C)C(=O)[C@@H]2CCCN2C1=O` [pd065] (cyclo([Abu]P[NMeL][Sar][NMedβ3hAla][NMeβAla]L[NMeL]V[NMeF][hPhe][NMeI]S(tBu)[NMeL])), for which the Papp A→B in data set [1] (setting [5]) was determined as 0.54 ×10⁻⁶ cm/s. In addition, in data set [2] (setting [6]), the “Caco2 Papp (10^-6 cm/sec)” value is on record as 0.54 10^-6 cm/sec. The microsomal CLint at 1 µM in data set [3] (setting [7]) came out at 41.7 µL/min/mg. Moreover, the “Mouse Hepatic Microsome CLh,int NADPH(-)” value in data set [3] (setting [8]) worked out at 40.2 µL/min/mg Protein. For the same molecule, the AUC(0-inf) in data set [4] (in vivo, male mice, intravenous administration, 1 mg/kg, read-out: AUCinf) came out at 8700 ng·h/mL; in data set [4] (in vivo, male mice, oral administration, 50 mg/kg, read-out: AUCinf), 110000 ng·h/mL. For the same molecule, the clearance in data set [4] (in vivo, male mice, intravenous administration, 1 mg/kg, read-out: CL) came to 1.9 mL/min/kg. For the same molecule, the Vd in data set [4] (in vivo, male mice, intravenous administration, 1 mg/kg, read-out: Vss) was 0.57 L/kg. Further, the half-life in data set [4] (in vivo, male mice, intravenous administration, 1 mg/kg, read-out: t1/2 (converted)) is 5.4 h; in data set [4] (in vivo, male mice, oral administration, 50 mg/kg, read-out: t1/2 (converted)) it was 5.8 h. Further, in data set [4] (in vivo, male mice, oral 50 mg/kg vs intravenous 1 mg/kg, bioavailability, read-out: F), the bioavailability was 26%. The Cmax in data set [4] (in vivo, male mice, oral administration, 50 mg/kg, read-out: Cmax) is 11000 ng/mL. Further, the Tmax in data set [4] (in vivo, male mice, oral administration, 50 mg/kg, read-out: Tmax) came out at 2.7 h.

Take `CC[C@@H]1NC(=O)[C@H](CC(C)C)N(C)C(=O)[C@H]([C@@H](C)CC)NC(=O)[C@H](CC(C)C)N(C)C(=O)C[C@@H](C)NC(=O)[C@H](C(C)C)N(C)C(=O)[C@H](CC(C)C)NC(=O)[C@H](CC)N(C)C(=O)[C@H](Cc2ccccc2)N(C)C(=O)[C@@H]2CCCN2C(=O)[C@H](CC(C)C)NC(=O)[C@H]([C@@H](C)O)N(C)C(=O)[C@H](CC(C)C)N(C)C1=O` [pd135] (cyclo([Abu][NMeL][NMeT]LP[NMeF][NMeAbu]L[NMeV][d(β3hA)][NMeL]I[NMeL])): the Papp A→B in data set [1] (setting [5]) was found to be 1.95 ×10⁻⁶ cm/s. For the same molecule, the “Caco2 Papp (10^-6 cm/sec)” value in data set [2] (setting [6]) was 1.95 10^-6 cm/sec. The microsomal CLint at 1 µM in data set [3] (setting [7]) came to 39.5 µL/min/mg. Also, the “Mouse Hepatic Microsome CLh,int NADPH(-)” value in data set [3] (setting [8]) is 28.4 µL/min/mg Protein. The AUC(0-inf) in data set [4] (setting [9]) worked out at 10000 ng·h/mL; in data set [4] (setting [14]) it was 79000 ng·h/mL. Also, the clearance in data set [4] (setting [10]) came to 1.7 mL/min/kg. Besides, in data set [4] (setting [11]), the Vd was 0.81 L/kg. The half-life is 6.4 h in data set [4] (setting [12]) and 7.6 h in data set [4] (setting [17]). For the same molecule, the bioavailability in data set [4] (setting [13]) is 16%. For the same molecule, the Cmax in data set [4] (setting [15]) was determined as 7000 ng/mL. For the same molecule, the Tmax in data set [4] (setting [16]) is 1.7 h.

Consider `CC[C@H](C)[C@H]1C(=O)N[C@@H](CC(C)C)C(=O)N(C)CC(=O)N(C)[C@@H](CC(C)C)C(=O)N[C@@H](CC(C)C)C(=O)N(C)[C@H](C)CC(=O)N(C)[C@@H](CC(C)C)C(=O)N(C)CCC(=O)N(C)[C@@H](CC(C)C)C(=O)N[C@@H](COC(C)(C)C)C(=O)N(C)[C@@H](Cc2ccccc2)C(=O)N(C)CCC(=O)N(C)[C@@H](Cc2ccccc2)C(=O)N1C` [pd144] (cyclo(L[Sar][NMeL]L[NMedβ3hAla][NMeL][NMeβAla][NMeL]S(tBu)[NMeF][NMeβAla][NMeF][NMeI])), for which the Papp A→B in data set [1] came to 1.28 ×10⁻⁶ cm/s. Further, in data set [2] (Caco-2), the “Caco2 Papp (10^-6 cm/sec)” value is given as 1.28 10^-6 cm/sec. Also, the “Mouse Hepatic Microsome CLh,int NADPH(-)” value in data set [3] is listed as 34.0 µL/min/mg Protein. In data set [4] (male, in vivo, iv, 1 mg/kg), this molecule gave an AUC(0-inf) of 3500 ng·h/mL, a Vd of 1.6 L/kg, a clearance of 4.9 mL/min/kg and a half-life of 5.3 h. The bioavailability in data set [4] (male, in vivo, po) was 40%. In data set [4] (male, in vivo, po, 50 mg/kg), the AUC(0-inf) stood at 71000 ng·h/mL, the peak level (Cmax) was 7000 ng/mL, the Tmax is 1.3 h and the half-life is 9.7 h.
